Laboratory results from ChEMBL document CHEMBL4229562, “Introduction of a Methyl Group Curbs Metabolism of Pyrido[3,4- d]pyrimidine Monopolar Spindle 1 (MPS1) Inhibitors and Enables the Discovery of the Phase 1 Clinical Candidate N2-(2-Ethoxy-4-(4-methyl-4 H-1,2,4-triazol-3-yl)phenyl)-6-methyl- N8-neopentylpyrido[3,4- d]pyrimidine-2,8-diamine …” (J Med Chem, 2018).
In brackets after ≈: the same amount, converted by molar mass.

Experiments:
[1] = biological target: T1, Dual specificity protein kinase TTK (Homo sapiens, UniProt P33981)
T1 sequence (P33981 whole entry): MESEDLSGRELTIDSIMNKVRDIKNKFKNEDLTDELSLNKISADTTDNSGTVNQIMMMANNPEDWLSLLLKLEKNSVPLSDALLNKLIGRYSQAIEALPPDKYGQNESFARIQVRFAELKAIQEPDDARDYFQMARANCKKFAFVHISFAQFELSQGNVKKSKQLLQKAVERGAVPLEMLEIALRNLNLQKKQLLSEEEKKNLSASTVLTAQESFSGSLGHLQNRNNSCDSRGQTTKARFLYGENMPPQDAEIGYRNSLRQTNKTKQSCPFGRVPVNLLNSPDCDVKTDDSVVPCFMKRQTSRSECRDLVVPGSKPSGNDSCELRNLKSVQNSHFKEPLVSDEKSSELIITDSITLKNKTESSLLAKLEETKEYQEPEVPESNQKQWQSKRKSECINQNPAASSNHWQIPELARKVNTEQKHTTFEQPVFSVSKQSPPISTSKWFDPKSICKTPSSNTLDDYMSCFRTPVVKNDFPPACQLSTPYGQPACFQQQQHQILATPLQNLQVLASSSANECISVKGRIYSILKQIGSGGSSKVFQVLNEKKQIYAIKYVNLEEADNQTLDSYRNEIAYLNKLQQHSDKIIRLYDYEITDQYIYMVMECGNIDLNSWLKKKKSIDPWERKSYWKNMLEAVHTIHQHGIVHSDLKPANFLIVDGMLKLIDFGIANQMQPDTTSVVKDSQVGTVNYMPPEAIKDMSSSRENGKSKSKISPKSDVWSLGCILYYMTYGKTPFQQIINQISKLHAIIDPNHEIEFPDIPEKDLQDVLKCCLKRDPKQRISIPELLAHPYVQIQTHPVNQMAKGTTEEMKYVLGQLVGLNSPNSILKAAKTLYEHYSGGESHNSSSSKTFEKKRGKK
Description: Inhibition of MPS1 autophosphorylation at Thr33/Ser37 in human HCT116 cells after 2 hrs by MSD assay

Rattus norvegicus [2] = test: Half life in rat at 2.5 mg/kg, iv by ESI-LCMS/MS analysis; type: ADME, organism-based; settings: in vivo
[3] = AUClast in mouse at 5 mg/kg, po measured after 6 hrs by ESI-LCMS/MS analysis; type: ADME, organism-based; settings: in vivo
[4] = biological target: Mitogen-activated protein kinase 8 (Homo sapiens, UniProt P45983); test: Inhibition of recombinant human full length His-tagged JNK1 expressed in baculovirus expression system by Z'-LYTE assay
[5] = Cmax in mouse at 5 mg/kg, po by ESI-LCMS/MS analysis; type: ADME, organism-based; design: dose 5 mg/kg, route oral; settings: in vivo
[6] = Clearance in rat at 2.5 mg/kg, iv by ESI-LCMS/MS analysis; type: ADME, organism-based; settings: in vivo
Rattus norvegicus [7] = test: Oral bioavailability in rat at 5 mg/kg by ESI-LCMS/MS analysis; type: ADME, organism-based; settings: in vivo
[8] = biological target: T1, Dual specificity protein kinase TTK; remark: listed apart in the source
Description: Inhibition of full length human N-terminal 6xHis-tagged MPS1 expressed in baculovirus expression system using 5FAM-H236 peptide as substrate after 60 to 90 mins by caliper assay

[9] = Cmax in rat at 5 mg/kg, po by ESI-LCMS/MS analysis; type: ADME, organism-based; design: dose 5 mg/kg, route oral; settings: in vivo
[10] = Volume of distribution at steady state in mouse at 5 mg/kg, iv by ESI-LCMS/MS analysis; type: ADME, organism-based; settings: in vivo, read-out: Vdss
[11] = Protein binding in mouse plasma; type: ADME, cell-free
[12] = Intrinsic clearance in human liver microsomes assessed per mg protein at 1 uM preincubated for 10 mins followed NADPH/UDP-glucuronic acid addition and measured after 30 mins by LC-MS/MS analysis; type: ADME, microsome; settings: 0.5 h
[13] = Lipophilicity, log P of the compound; type: physicochemical; settings: octanol/water
[14] = AUClast in rat at 5 mg/kg, po measured after 24 hrs by ESI-LCMS/MS analysis; type: ADME, organism-based; settings: in vivo
[15] = Intrinsic clearance in CD1 mouse liver microsomes assessed per mg protein at 1 uM preincubated for 10 mins followed NADPH/UDP-glucuronic acid addition and measured after 30 mins by LC-MS/MS analysis; type: ADME, microsome; settings: 0.5 h
Mus musculus [16] = test: Oral bioavailability in mouse at 5 mg/kg by ESI-LCMS/MS analysis; type: ADME, organism-based; settings: in vivo
[17] = biological target: Mitogen-activated protein kinase 10 (Homo sapiens, UniProt P53779); test: Inhibition of recombinant human full length N-terminal GST-tagged JNK3 expressed in baculovirus expression system by Z'-LYTE assay
[18] = Dissociation constant, pKa of the compound; type: physicochemical
CDK2/Cyclin A2 = CDK2/Cyclin A2 (Homo sapiens, UniProt P24941)
[19] = Volume of distribution at steady state in rat at 2.5 mg/kg, iv by ESI-LCMS/MS analysis; type: ADME, organism-based; settings: in vivo, read-out: Vdss
[20] = biological target: Mitogen-activated protein kinase 9 (Homo sapiens, UniProt P45984); test: Inhibition of recombinant human full length His-tagged JNK2 expressed in baculovirus expression system by Z'-LYTE assay
Mus musculus [21] = test: Half life in mouse at 5 mg/kg, iv by ESI-LCMS/MS analysis; type: ADME, organism-based; settings: in vivo
[22] = biological target: Leucine-rich repeat serine/threonine-protein kinase 2 (Homo sapiens, UniProt Q5S007); test: Inhibition of recombinant human GST-tagged LRRK2 (970 to 2527 residues) expressed in baculovirus expression system by Z'-LYTE assay
[23] = Clearance in mouse at 5 mg/kg, iv by ESI-LCMS/MS analysis; type: ADME, organism-based; settings: in vivo
[24] = Solubility of the compound in PBS buffer at pH 7.4 by HPLC analysis; type: physicochemical

Sequence of Mitogen-activated protein kinase 10 (P53779 whole entry): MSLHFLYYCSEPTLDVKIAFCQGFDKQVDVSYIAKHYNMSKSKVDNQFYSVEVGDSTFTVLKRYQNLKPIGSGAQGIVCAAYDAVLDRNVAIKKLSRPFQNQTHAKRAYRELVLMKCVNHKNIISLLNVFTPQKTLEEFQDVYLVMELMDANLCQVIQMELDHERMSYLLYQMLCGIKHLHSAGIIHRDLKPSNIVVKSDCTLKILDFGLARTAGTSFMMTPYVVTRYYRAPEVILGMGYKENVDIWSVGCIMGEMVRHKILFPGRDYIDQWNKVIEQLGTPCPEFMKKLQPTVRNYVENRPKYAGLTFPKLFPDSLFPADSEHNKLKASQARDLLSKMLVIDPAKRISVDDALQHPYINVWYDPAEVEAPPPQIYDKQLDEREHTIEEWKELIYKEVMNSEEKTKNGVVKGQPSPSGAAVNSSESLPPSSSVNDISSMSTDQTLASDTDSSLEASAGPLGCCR
Sequence of Mitogen-activated protein kinase 9 (P45984 whole entry): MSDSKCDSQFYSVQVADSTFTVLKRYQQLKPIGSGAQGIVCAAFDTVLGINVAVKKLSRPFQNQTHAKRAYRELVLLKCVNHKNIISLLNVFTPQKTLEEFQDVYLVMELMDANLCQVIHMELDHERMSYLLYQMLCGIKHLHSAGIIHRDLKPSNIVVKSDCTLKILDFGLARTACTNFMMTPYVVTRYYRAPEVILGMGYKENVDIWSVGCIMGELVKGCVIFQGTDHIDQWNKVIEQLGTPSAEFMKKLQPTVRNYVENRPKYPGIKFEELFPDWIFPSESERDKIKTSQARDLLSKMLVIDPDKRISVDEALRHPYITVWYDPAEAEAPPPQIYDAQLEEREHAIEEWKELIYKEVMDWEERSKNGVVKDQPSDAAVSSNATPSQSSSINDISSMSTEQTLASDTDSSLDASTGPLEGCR
Sequence of Leucine-rich repeat serine/threonine-protein kinase 2 (Q5S007 whole entry, the tested form may be a part): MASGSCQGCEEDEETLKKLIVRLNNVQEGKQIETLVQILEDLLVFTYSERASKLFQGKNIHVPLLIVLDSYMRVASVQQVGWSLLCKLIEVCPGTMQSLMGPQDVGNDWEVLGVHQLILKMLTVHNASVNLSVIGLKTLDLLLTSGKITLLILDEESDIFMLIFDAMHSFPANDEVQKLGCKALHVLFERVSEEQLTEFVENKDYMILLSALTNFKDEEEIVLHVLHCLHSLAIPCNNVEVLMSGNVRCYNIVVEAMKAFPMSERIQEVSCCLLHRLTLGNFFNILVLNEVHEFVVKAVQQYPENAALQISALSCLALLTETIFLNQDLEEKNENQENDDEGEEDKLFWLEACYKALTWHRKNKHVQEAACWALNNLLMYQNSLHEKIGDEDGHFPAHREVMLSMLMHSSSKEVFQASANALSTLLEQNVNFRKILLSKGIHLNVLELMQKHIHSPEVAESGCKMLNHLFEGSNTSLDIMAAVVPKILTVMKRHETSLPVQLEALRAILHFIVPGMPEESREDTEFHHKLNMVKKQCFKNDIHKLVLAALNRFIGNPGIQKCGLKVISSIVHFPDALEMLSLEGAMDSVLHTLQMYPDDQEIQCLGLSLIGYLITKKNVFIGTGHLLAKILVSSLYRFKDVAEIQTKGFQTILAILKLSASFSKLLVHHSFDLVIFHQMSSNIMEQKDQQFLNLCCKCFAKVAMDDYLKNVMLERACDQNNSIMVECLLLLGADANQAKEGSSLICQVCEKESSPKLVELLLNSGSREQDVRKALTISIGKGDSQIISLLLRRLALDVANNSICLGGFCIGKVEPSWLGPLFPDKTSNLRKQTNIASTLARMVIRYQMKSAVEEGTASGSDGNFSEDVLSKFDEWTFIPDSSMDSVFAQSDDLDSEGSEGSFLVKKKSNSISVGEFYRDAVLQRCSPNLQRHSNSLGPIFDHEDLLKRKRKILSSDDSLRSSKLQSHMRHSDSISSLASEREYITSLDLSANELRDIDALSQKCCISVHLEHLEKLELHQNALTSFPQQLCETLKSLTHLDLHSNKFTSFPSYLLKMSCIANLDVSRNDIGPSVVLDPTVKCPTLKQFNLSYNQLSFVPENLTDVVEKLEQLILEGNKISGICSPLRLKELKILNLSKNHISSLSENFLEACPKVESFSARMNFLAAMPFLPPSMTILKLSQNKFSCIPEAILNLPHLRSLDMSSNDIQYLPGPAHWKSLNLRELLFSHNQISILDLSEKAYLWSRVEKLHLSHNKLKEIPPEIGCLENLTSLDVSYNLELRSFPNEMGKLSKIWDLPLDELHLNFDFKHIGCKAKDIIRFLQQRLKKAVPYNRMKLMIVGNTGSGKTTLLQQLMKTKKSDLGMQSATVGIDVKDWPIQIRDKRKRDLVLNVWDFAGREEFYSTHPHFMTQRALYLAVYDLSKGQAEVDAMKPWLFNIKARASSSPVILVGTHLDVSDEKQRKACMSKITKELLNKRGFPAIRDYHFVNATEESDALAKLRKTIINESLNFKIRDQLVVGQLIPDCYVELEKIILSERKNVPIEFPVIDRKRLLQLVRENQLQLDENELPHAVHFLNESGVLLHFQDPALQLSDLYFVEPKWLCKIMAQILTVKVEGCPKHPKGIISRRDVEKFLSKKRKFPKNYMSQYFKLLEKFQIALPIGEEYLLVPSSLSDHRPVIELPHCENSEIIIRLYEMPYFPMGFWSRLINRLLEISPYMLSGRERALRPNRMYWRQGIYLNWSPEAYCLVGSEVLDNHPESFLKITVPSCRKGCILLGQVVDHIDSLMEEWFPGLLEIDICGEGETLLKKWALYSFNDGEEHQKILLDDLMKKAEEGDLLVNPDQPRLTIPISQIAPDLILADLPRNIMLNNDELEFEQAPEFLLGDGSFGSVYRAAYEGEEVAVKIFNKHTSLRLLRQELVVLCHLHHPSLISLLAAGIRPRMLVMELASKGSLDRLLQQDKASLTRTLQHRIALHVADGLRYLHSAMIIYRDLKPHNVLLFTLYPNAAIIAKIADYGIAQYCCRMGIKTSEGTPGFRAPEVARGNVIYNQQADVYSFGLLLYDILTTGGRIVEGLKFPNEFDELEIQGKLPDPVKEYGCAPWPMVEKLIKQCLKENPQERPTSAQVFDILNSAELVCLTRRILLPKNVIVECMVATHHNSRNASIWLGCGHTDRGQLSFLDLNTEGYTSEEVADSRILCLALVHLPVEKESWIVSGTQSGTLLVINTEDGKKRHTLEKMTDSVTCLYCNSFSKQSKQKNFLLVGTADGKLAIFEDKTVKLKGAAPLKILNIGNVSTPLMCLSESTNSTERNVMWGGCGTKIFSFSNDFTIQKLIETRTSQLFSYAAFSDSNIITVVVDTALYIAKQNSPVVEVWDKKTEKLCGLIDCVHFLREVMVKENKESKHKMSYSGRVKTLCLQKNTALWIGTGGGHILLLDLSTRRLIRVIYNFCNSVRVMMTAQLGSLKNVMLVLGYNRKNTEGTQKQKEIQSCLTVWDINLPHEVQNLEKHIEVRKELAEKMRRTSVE
Sequence of Mitogen-activated protein kinase 8 (P45983 whole entry): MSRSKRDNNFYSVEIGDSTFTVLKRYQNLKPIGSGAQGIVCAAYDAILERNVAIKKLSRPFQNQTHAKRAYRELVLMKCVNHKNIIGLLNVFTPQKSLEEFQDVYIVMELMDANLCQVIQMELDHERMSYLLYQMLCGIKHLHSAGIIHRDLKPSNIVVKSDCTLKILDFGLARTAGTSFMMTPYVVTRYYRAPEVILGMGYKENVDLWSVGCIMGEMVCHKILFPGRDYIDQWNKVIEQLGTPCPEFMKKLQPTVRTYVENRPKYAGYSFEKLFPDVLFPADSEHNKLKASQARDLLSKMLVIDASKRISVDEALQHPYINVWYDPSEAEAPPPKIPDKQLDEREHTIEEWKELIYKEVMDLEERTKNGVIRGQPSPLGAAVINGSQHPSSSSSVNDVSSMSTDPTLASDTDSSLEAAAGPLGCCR

IC50 [1]: 63 nM | t1/2 (Rattus norvegicus [2]): 4.66 h | AUC(0-t) at 6 h [3]: 11 µM·h | IC50 [4]: 92 nM | Cmax [5]: 2760 nM | clearance [6]: 10.1 mL/min/kg | F (Rattus norvegicus [7]): 63% | IC50 [8]: 11 nM | Ki [8]: 0.11 nM | Cmax [9]: 813 nM | Vd [10]: 2.46 L/kg | PPB [11]: 99.85% | CLH [12]: 8 µL/min/mg | logP [13]: 4.23 | AUC(0-t) at 24 h [14]: 11.3 µM·h | CLH [15]: 26.3 µL/min/mg | F (Mus musculus [16]): 81% | IC50 [17]: 242 nM | pKa [18]: 2.63 to 6.22 | IC50 (CDK2/Cyclin A2): 1020 nM | Ki (CDK2/Cyclin A2): 510 nM | Vd [19]: 3.52 L/kg | IC50 [20]: 76 nM | t1/2 (Mus musculus [21]): 2.68 h | IC50 [22]: 48 nM | clearance [23]: 10.9 mL/min/kg | solubility [24]: 6.6 µM (≈ 2.95 µg/mL)
SMILES: CCOc1cc(-c2nncn2C)ccc1Nc1ncc2cc(C)nc(NCC(C)(C)C)c2n1 [BOS-172722]
